Where two headings read alike, the source gives them in different places.
Columns and labels:
honey bees [1] = assay: Acetamiprid assay: honey bee mortality after acetamiprid with or without inhibitors; details: for Mean mortality, acetamiprid with inhibitor: 1 mM inhibitor + 0.1 μg/μl acetamiprid; for Mean mortality, inhibitor only: 1 mM inhibitor without insecticide, 3 replicate cages
honey bees [2] = details: for Mortality (SE) 1 μg/ml IVM and 1mM Inhibitor: 1 mM inhibitor fed 24 h, then 1 mM inhibitor + 1 μg/ml ivermectin, proportion of bees dead at 24 h; for Mortality (SE), inhibitor-only control: 1 mM inhibitor without ivermectin, proportion of bees dead
Procedure: Apis mellifera were obtained from hives maintained on the University of Maryland farm in Beltsville, MD. Hives were maintained by standard bee keeping practices, and kept free of in-hive medications. Brood frames were taken from hives and emerging bees were collected daily into 207 ml cages of 15–20 bees and fed 30% sucrose w/v solution. Bees used in bioassays were 3–7 days post-eclosion.
Mortality was recorded 24 h after ivermectin exposure for 20–28 replicate cages of bees with approximately 15 bees in each cage. No-inhibitor controls (15 cages) were included in each assay. […] Mortality rates for each concentration of ivermectin were estimated by averaging the mortality of approximately 15 bees contained in each of 4 replicate cages. Similarly, to measure changes in sensitivity to ivermectin at varying dosages of the inhibitors, 4–12 replicate cages of bees (fewer at extreme dosages, more at intermediates) were fed a series of concentrations of each inhibitor (0, 0.03, 0.06, 0.125, 0.25, 0.5, 1.0, 2.0 mM) for 24 h, then fed a combination of the same inhibitor dose and 1μg/ml ivermectin solution.
Mortality was estimated as the proportion of bees within a cage that were dead at 24 or 48 h after treatment with ivermectin. Comparisons of mean mortality among treatments were tested using t-tests. LC50s of ivermectin with inhibitors were estimated using the ProcProbit procedure in SAS (V. 9.2).

Compound | Mean mortality, acetamiprid with inhibitor (honey bees [1]; 24 h) | Mean mortality, inhibitor only (honey bees [1]) | Low inhibitor dosage that increases sensitivity of bees to ivermectin (honey bees [2]; 1 μg/ml ivermectin, 24 h (Fig 2)) [mM] | Mortality (SE) 1 μg/ml IVM and 1mM Inhibitor (honey bees [2]) | Mortality (SE), inhibitor-only control (honey bees [2]) | Mortality (SE), inhibitor-only control (honey bees [2]; listed as fumagillin) | Synergism Ratio (LC50 relative to IVM) (honey bees [2]; 1 mM inhibitor) | LC50 of ivermectin (honey bees [2]; ivermectin alone in syrup, 24 h) [µg/mL] | Mortality (SE), inhibitor-only control (honey bees [2]; listed as quercetin) | Mean mortality, acetamiprid alone (honey bees [1]; 0.1 μg/μl acetamiprid, 24 h)
CO[C@@H]1[C@H](OC(=O)/C=C/C=C/C=C/C=C/C(=O)O)CC[C@]2(CO2)[C@H]1[C@@]1(C)O[C@@H]1CC=C(C)C [Fumagillin, fumagillin] | 0.80 | 0.01 | 0.03 | 0.47 | 0.01 (0.01) | 0.01 |  |  |  | 
CC[C@H](C)[C@H]1O[C@]2(CC[C@@H]1C)C[C@@H]1C[C@@H](C/C=C(\C)[C@@H](O[C@H]3C[C@H](OC)[C@@H](O[C@H]4C[C@H](OC)[C@@H](O)[C@H](C)O4)[C@H](C)O3)[C@@H](C)/C=C/C=C3\CO[C@@H]4[C@H](O)C(C)=C[C@@H](C(=O)O1)[C@]34O)O2 [Ivermectin (IVM), Ivermectin] |  |  |  |  |  |  | 1.00 | 1.57 |  | 
O=c1c(O)c(-c2ccc(O)c(O)c2)oc2cc(O)cc(O)c12 [Quercetin, quercetin] | 0.97 | 0.07 |  | 0.54 | 0.02 (0.02) |  |  |  | 0.02 | 
C/C(=N\C#N)N(C)Cc1ccc(Cl)nc1 [acetamiprid] |  |  |  |  |  |  |  |  |  | 0.25

From PMC4740413, “Multi-Drug Resistance Transporters and a Mechanism-Based Strategy for Assessing Risks of Pesticide Combinations to Honey Bees” (PLoS ONE, 2016)
